# Columns and labels:
# Format in all cases: in vivo
# [1] = tested on: spring barley, HORVS Montoya; assay: Tank-mix; post-emergence: crop damage by herbicide with/without safener mefenpyr-diethyl; details: 10 DAT
# How it was run: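 Visual percent crop damage (0–100 relative to untreated plants) assessed 1–3 weeks post-application. Plants in sandy loam were sprayed at the 1–3-leaf stage with herbicide with or without safener at several rates, water volume 300 l/ha.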
# [2] = tested on: spring barley, HORVS Montoya; assay: Treatment 1 day before: safener applied one day before herbicide, crop damage; details: for HER effect + SAF / Reduction [%] / Reduction [Difference]: mefenpyr-diethyl 50 g a.i./ha 1 day before
# Description: (§1) Seeds of crops (spring wheat, TRZAS; spring barley, HORVS; maize, ZEAMA) were placed in sandy loam soil in pots of a diameter of 7-8 cm, covered with soil, and cultivated in a greenhouse under good growth conditions until plants were at the 1-3 leaf stage (BBCH 11-13). For split safener and herbicide treatment, first the safener was applied followed by the herbicide treatment on the following day. The safener and herbicides were formulated as WP and sprayed onto the green parts of the plants as an aqueous suspension at an equivalent water application rate of 300 l/ha, with addition of wetting agent and adjuvants (e.g. Mero, 1.5 l/ha; ammonium sulphate, 2 kg/ha). An equivalent set of plants was treated with the herbicides but without the prior safener treatment.
# (§2) After application, the test plants were kept in the greenhouse under good growth conditions. 10 and 21 days after treatment (DAT) with the herbicide, % crop damage observed on the treated plants was scored visually in comparison to control plants that had not received any safener or herbicide treatment.
# [3] = tested on: spring wheat, TRZAS Triso; assay: as above; details: 21 DAT; for HER effect + SAF / Reduction [%] / Reduction [Difference]: mefenpyr-diethyl 50 g a.i./ha 1 day before
# Description: as §1, §2
# [4] = tested on: spring barley, HORVS Montoya; assay: Seed treatment with safener; post-emergence herbicide, crop damage; details: 21 DAT; for HER effect + SAF / Reduction [%] / Reduction [Difference]: mefenpyr-diethyl 0.5 g a.i./kg seed
# How it was run: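 Crop injury was rated visually in % at 10 and 21 days after post-emergence spraying at the 2-leaf stage. The herbicide was a WP in 300 l/ha water plus 1 l/ha MERO. Plants grew from seed either safener-coated at stated g a.i./kg rates via a milk-diluted slurry, or untreated.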
# [5] = HER 48 g a.i./ha + mefenpyr-diethyl 100 g a.i./ha
# [6] = HER 12 g a.i./ha post-emergence
# [7] = HER 48 g a.i./ha post-emergence
compound,measurement,setting,value
CCOC(=O)C1C=CC(NC(=O)C2(C(F)(F)F)CC(c3cc(OC)cc(OC)c3)=NO2)C1 (mixture of isomers) [Example 1.12],HER effect + SAF,[1]; [5],0%
same,Reduction [%],[1]; [5],100%
same,Reduction [Difference],[1]; [5],60
same,HER effect,[1]; herbicide alone 48 g a.i./ha,60%
same,HER effect + SAF,"[2]; HER 50 g a.i./ha, 10 DAT",20%
same,Reduction [%],"[2]; HER 50 g a.i./ha, 10 DAT",64%
same,Reduction [Difference],"[2]; HER 50 g a.i./ha, 10 DAT",35
same,HER effect + SAF,"[2]; HER 100 g a.i./ha, 21 DAT",50%
same,Reduction [%],"[2]; HER 100 g a.i./ha, 21 DAT",29%
same,Reduction [Difference],"[2]; HER 100 g a.i./ha, 21 DAT",20
same,HER effect,"[2]; herbicide alone 50 g a.i./ha, 10 DAT",55%
same,HER effect,"[2]; herbicide alone 100 g a.i./ha, 21 DAT",70%
same,HER effect + SAF,[3]; HER 200 g a.i./ha,20%
same,Reduction [%],[3]; HER 200 g a.i./ha,50%
same,Reduction [Difference],[3]; HER 200 g a.i./ha,20
same,HER effect,[3]; herbicide alone 200 g a.i./ha,40%
same,HER effect + SAF,[4]; [6],0%
same,Reduction [%],[4]; [6],100%
same,Reduction [Difference],[4]; [6],20
same,HER effect + SAF,[4]; [7],20%
same,Reduction [%],[4]; [7],60%
same,Reduction [Difference],[4]; [7],30
same,HER effect,[4]; herbicide alone 12 g a.i./ha post-emergence,20%
same,HER effect,[4]; herbicide alone 48 g a.i./ha post-emergence,50%
CC1(C(=O)NC2C=CC(C(=O)N3CCCCO3)C2)CC(c2cc(F)cc(F)c2)=NO1 (mixture of isomers) [Example 1.46],HER effect + SAF,"[2]; HER 25 g a.i./ha, 21 DAT",10%
same,Reduction [%],"[2]; HER 25 g a.i./ha, 21 DAT",78%
same,Reduction [Difference],"[2]; HER 25 g a.i./ha, 21 DAT",35
same,HER effect + SAF,"[2]; HER 50 g a.i./ha, 21 DAT",20%
same,Reduction [%],"[2]; HER 50 g a.i./ha, 21 DAT",69%
same,Reduction [Difference],"[2]; HER 50 g a.i./ha, 21 DAT",45
same,HER effect,"[2]; herbicide alone 25 g a.i./ha, 21 DAT",45%
same,HER effect,"[2]; herbicide alone 50 g a.i./ha, 21 DAT",65%
same,HER effect + SAF,[3]; HER 100 g a.i./ha,5%
same,Reduction [%],[3]; HER 100 g a.i./ha,92%
same,Reduction [Difference],[3]; HER 100 g a.i./ha,55
same,HER effect + SAF,[3]; HER 200 g a.i./ha,5%
same,Reduction [%],[3]; HER 200 g a.i./ha,94%
same,Reduction [Difference],[3]; HER 200 g a.i./ha,75
same,HER effect,[3]; herbicide alone 100 g a.i./ha,60%
same,HER effect,[3]; herbicide alone 200 g a.i./ha,80%

# — US20230200390A1, “SELECTIVE HERBICIDES BASED ON SUBSTITUTED ISOXAZOLIN CARBOXAMIDES AND MEFENPYR-DIETHYL” (BAYER AKTIENGESELLSCHAFT, priority 2020, published 2023)
